Test system: Cholesterol Biosynthesis Genes in the Mouse Liver
Assay: Microarray expression of cholesterol biosynthesis genes in mouse liver
Type: in vivo
Details: 10 mg/kg oral
Experimental: A number of PHI compounds were evaluated for their effect on the expression of cholesterol biosynthesis genes in mouse liver. […] Liver tissue was harvested and stored in RNALater (Life Technologies). Total RNA was isolated with Trizol (Life Technologies) and purified with RNEasy96 (Qiagen) according to the manufacturers' protocols. RNA concentration was measured by NanoDrop (Thermo), and quality was assessed by Bioanalyzer (Agilent).
Biotinylated microarray probe was prepared using the 3′IVT Express kit (Affymetrix) and hybridized to mouse 430A 2.0 arrays as recommended in the manufacturer's protocol. Arrays were stained, washed, and scanned using Affymetrix equipment and software. Three arrays were run for each treatment and time point, each representing the liver sample from one individual animal.
Animals were sacrificed 4 h or 8 h later. Each compound was tested in a separate animal study with separate controls. Liver tissue was harvested and stored in RNALater (Life Technologies). Total RNA was isolated with Trizol (Life Technologies) and purified with RNEasy96 (Qiagen) according to the manufacturers' protocols. RNA concentration was measured by NanoDrop (Thermo), and quality was assessed by Bioanalyzer (Agilent).
For microarray analysis, RNA from animals in each treatment group was pooled in pairs (n=3 pairs for 4 h vehicle, n=2 pairs for all other treatment groups, for a total of 13 arrays per compound study). This approach was used to improve the signal-to-noise ratio on microarrays. Biotinylated probe was prepared using the One-Cycle cDNA synthesis kit (Affymetrix) and hybridized to mouse 430A 2.0 arrays as recommended in the manufacturer's protocol. Arrays were stained, washed, and scanned using Affymetrix equipment and software.
Array quality was assessed with GeneChip Operating System and/or Command Console software (Affymetrix). CEL files were uploaded to GeneSpring 7.3.1 (Agilent) using GC-RMA baseline correction. Principal Components Analysis was used to identify and reject outlier arrays. Data are reported as fold-change compared to timepoint-matched vehicle controls from the same study. Values less than 1.0 indicate a reduction of RNA in the treated animal liver tissue.

Cc1cccc(C)c1Oc1ccc2c(O)c(C(=O)NCC(=O)O)nc(C#N)c2c1 [Compound I, {[1-Cyano-7-(2,6-dimethyl-phenoxy)-4-hydroxy-isoquinoline-3-carbonyl]-amino}-acetic acid]
3-hydroxy-3-methylglutaryl-Coenzyme A reductase (Hmgcr) RNA expression (4 h): 0.41 fold-change | 3-hydroxy-3-methylglutaryl-Coenzyme A synthase 1 (Hmgcs1) RNA expression (4 h): 1.43 fold-change | 7-dehydrocholesterol reductase (Dhcr7) RNA expression (4 h): 1.41 fold-change | NAD(P) dependent steroid dehydrogenase-like (Nsdhl) RNA expression (4 h): 1.66 fold-change | acetyl-Coenzyme A acetyltransferase 2 (Acat2) RNA expression (4 h): 1.21 fold-change | cytochrome P450, family 51 (Cyp51) RNA expression (4 h): 0.81 fold-change | farnesyl diphosphate farnesyl transferase 1 (Fdft1) RNA expression (4 h): 0.85 fold-change | farnesyl diphosphate synthetase (Fdps) RNA expression (4 h): 1.45 fold-change | isopentenyl-diphosphate delta isomerase (Idi1) RNA expression (4 h): 1.40 fold-change | lanosterol synthase (Lss) RNA expression (4 h): 0.74 fold-change | mevalonate (diphospho) decarboxylase (Mvd) RNA expression (4 h): 0.45 fold-change | mevalonate kinase (Mvk) RNA expression (4 h): 1.02 fold-change | phosphomevalonate kinase (Pmvk) RNA expression (4 h): 1.25 fold-change | squalene epoxidase (Sqle) RNA expression (4 h): 1.36 fold-change | sterol-C4-methyl oxidase-like (Sc4mol) RNA expression (4 h): 0.88 fold-change | sterol-C5-desaturase (fungal ERG3, delta-5-desaturase) homolog (S. cerevisae) (Sc5d) RNA expression (4 h): 0.87 fold-change | 3-hydroxy-3-methylglutaryl-Coenzyme A reductase (Hmgcr) RNA expression (8 h): 0.17 fold-change | 3-hydroxy-3-methylglutaryl-Coenzyme A synthase 1 (Hmgcs1) RNA expression (8 h): 0.19 fold-change | 7-dehydrocholesterol reductase (Dhcr7) RNA expression (8 h): 0.30 fold-change | NAD(P) dependent steroid dehydrogenase-like (Nsdhl) RNA expression (8 h): 0.21 fold-change | acetyl-Coenzyme A acetyltransferase 2 (Acat2) RNA expression (8 h): 0.43 fold-change | cytochrome P450, family 51 (Cyp51) RNA expression (8 h): 0.12 fold-change | farnesyl diphosphate farnesyl transferase 1 (Fdft1) RNA expression (8 h): 0.32 fold-change | farnesyl diphosphate synthetase (Fdps) RNA expression (8 h): 0.16 fold-change | isopentenyl-diphosphate delta isomerase (Idi1) RNA expression (8 h): 0.12 fold-change | lanosterol synthase (Lss) RNA expression (8 h): 0.28 fold-change | mevalonate (diphospho) decarboxylase (Mvd) RNA expression (8 h): 0.19 fold-change | mevalonate kinase (Mvk) RNA expression (8 h): 0.37 fold-change | phosphomevalonate kinase (Pmvk) RNA expression (8 h): 0.41 fold-change | squalene epoxidase (Sqle) RNA expression (8 h): 0.16 fold-change | sterol-C4-methyl oxidase-like (Sc4mol) RNA expression (8 h): 0.11 fold-change | sterol-C5-desaturase (fungal ERG3, delta-5-desaturase) homolog (S. cerevisae) (Sc5d) RNA expression (8 h): 0.54 fold-change

N#Cc1nc(C(=O)NCC(=O)O)c(O)c2ccn(Cc3ccc4ccccc4c3)c12 [Compound J, [(7-Cyano-4-hydroxy-1-naphthalen-2-ylmethyl-1H-pyrrolo[2,3-c]pyridine-5-carbonyl)-amino]-acetic acid]
3-hydroxy-3-methylglutaryl-Coenzyme A reductase (Hmgcr) RNA expression (4 h): 0.38 fold-change | 3-hydroxy-3-methylglutaryl-Coenzyme A synthase 1 (Hmgcs1) RNA expression (4 h): 0.28 fold-change | 7-dehydrocholesterol reductase (Dhcr7) RNA expression (4 h): 0.52 fold-change | NAD(P) dependent steroid dehydrogenase-like (Nsdhl) RNA expression (4 h): 0.42 fold-change | acetyl-Coenzyme A acetyltransferase 2 (Acat2) RNA expression (4 h): 0.58 fold-change | cytochrome P450, family 51 (Cyp51) RNA expression (4 h): 0.38 fold-change | farnesyl diphosphate farnesyl transferase 1 (Fdft1) RNA expression (4 h): 0.70 fold-change | farnesyl diphosphate synthetase (Fdps) RNA expression (4 h): 0.38 fold-change | isopentenyl-diphosphate delta isomerase (Idi1) RNA expression (4 h): 0.25 fold-change | lanosterol synthase (Lss) RNA expression (4 h): 0.77 fold-change | mevalonate (diphospho) decarboxylase (Mvd) RNA expression (4 h): 0.72 fold-change | mevalonate kinase (Mvk) RNA expression (4 h): 0.79 fold-change | phosphomevalonate kinase (Pmvk) RNA expression (4 h): 0.59 fold-change | squalene epoxidase (Sqle) RNA expression (4 h): 0.26 fold-change | sterol-C4-methyl oxidase-like (Sc4mol) RNA expression (4 h): 0.27 fold-change | sterol-C5-desaturase (fungal ERG3, delta-5-desaturase) homolog (S. cerevisae) (Sc5d) RNA expression (4 h): 1.22 fold-change | 3-hydroxy-3-methylglutaryl-Coenzyme A reductase (Hmgcr) RNA expression (8 h): 0.43 fold-change | 3-hydroxy-3-methylglutaryl-Coenzyme A synthase 1 (Hmgcs1) RNA expression (8 h): 0.92 fold-change | 7-dehydrocholesterol reductase (Dhcr7) RNA expression (8 h): 0.94 fold-change | NAD(P) dependent steroid dehydrogenase-like (Nsdhl) RNA expression (8 h): 1.03 fold-change | acetyl-Coenzyme A acetyltransferase 2 (Acat2) RNA expression (8 h): 0.91 fold-change | cytochrome P450, family 51 (Cyp51) RNA expression (8 h): 0.80 fold-change | farnesyl diphosphate farnesyl transferase 1 (Fdft1) RNA expression (8 h): 0.66 fold-change | farnesyl diphosphate synthetase (Fdps) RNA expression (8 h): 0.66 fold-change | isopentenyl-diphosphate delta isomerase (Idi1) RNA expression (8 h): 0.70 fold-change | lanosterol synthase (Lss) RNA expression (8 h): 0.76 fold-change | mevalonate (diphospho) decarboxylase (Mvd) RNA expression (8 h): 0.83 fold-change | mevalonate kinase (Mvk) RNA expression (8 h): 0.79 fold-change | phosphomevalonate kinase (Pmvk) RNA expression (8 h): 0.84 fold-change | squalene epoxidase (Sqle) RNA expression (8 h): 1.03 fold-change | sterol-C4-methyl oxidase-like (Sc4mol) RNA expression (8 h): 0.52 fold-change | sterol-C5-desaturase (fungal ERG3, delta-5-desaturase) homolog (S. cerevisae) (Sc5d) RNA expression (8 h): 0.81 fold-change

Source: patent US20150018384A1, “TREATMENT FOR HIGH CHOLESTEROL” (FibroGen, Inc., priority 2012, published 2015)
